Reference: patent US20240115654A1, “INTRAVENOUS ADMINISTRATION OF ENGINEERED ANTIMICROBIAL AMPHIPHILIC PEPTIDES” (priority 2021, published 2024)
Read-outs that look alike come from different tables or passages of the source. Peptide text beside a SMILES is read from it.

Text: All subjects who met eligibility criteria were confined to the clinical research unit from […] through Day 3. At admission, physical examination, vital signs, 12 lead ECG and weight were obtained, medical and medication history were updated if necessary, safety blood tests (hematology and chemistry), urinalysis, urine drug screen and an alcohol breath test were repeated and a urine pregnancy test was done for women of childbearing potential.
At each dose level, there were 2 sentinel subjects, (1 active, 1 placebo), who were dosed at least 48 hours in advance of the other subjects in their respective group. Following review of safety data, including physical examination, vital signs, and review of adverse events from the first 2 subjects, enrolment in the cohort continued.
A 12-lead ECG was performed on Day 1, within 60 minutes of infusion start (in triplicate), mid-way through the infusion, at the completion of the infusion, 30 minutes after completion of the infusion and at various timepoints following the end of the infusion.
Vital signs were recorded within 60 minutes pre-dose, at the mid-point of the infusion and post dose vitals were assessed at completion of the infusion, 0.5, 1, 2, 3, 4, 6, 9, 12, 24 and 48 hours post dose, after at least 3 minutes of rest in supine position.
Subjects returned to the study center 7 days after dosing, for the termination visit. A full physical examination, vital signs and weight were obtained, concomitant medications were updated if necessary, safety blood specimens (haematology and chemistry, PT and aPTT) and urine were collected for urinalysis and urine drug screening. A serum pregnancy test was done for women of childbearing potential and a 12-lead ECG was performed.
In this study dose limiting toxicity (DLT) was defined as any drug related ≥Grade 3 AEs occurring despite optimal therapeutic interventions (which included but were not limited to allergic/hypersensitivity reactions, dermatological reactions/infusion site reactions, haematological toxicities such as neutropenia, thrombocytopenia and anaemia and clinical chemistry abnormalities) experienced up to Day 7 (Termination Visit).
(§1) All subjects who received any amount of study drug were included in the safety analysis (Safety population).
The study was a double blinded, randomized, placebo-controlled study. The placebo administered was 0.9% sodium chloride.
On Day 1 (day of dosing), subjects were randomly assigned either peptide IV or Placebo IV. At each dose level, there were 2 sentinel subjects, (1 active, 1 placebo), who were dosed at least 48 hours in advance of the other subjects in their respective group. Following review of safety data, including physical examination, vital signs, and review of adverse events from the first 2 subjects, enrolment in the cohort continued. All subjects who met eligibility criteria were confined to the clinical research unit from Day −2 through Day 3. At admission, physical examination, vital signs, 12 lead ECG and weight were obtained, medical and medication history were updated if necessary, safety blood tests (hematology and chemistry), urinalysis, urine drug screen and an alcohol breath test were repeated and a urine pregnancy test was done for women of childbearing potential.
as §1

[1] = Cohort 5: 1 mg/kg IV 4-hr infusion (N = 6)
[2] = Cohorts 1-5, comparing dose level, infusion time, placebo and active

Structure (SMILES): CC(C)[C@H](NC(=O)[C@H](Cc1c[nH]c2ccccc12)NC(=O)[C@H](CCCNC(=N)N)NC(=O)[C@H](CCCNC(=N)N)NC(=O)[C@@H](NC(=O)[C@@H](NC(=O)[C@H](CCCNC(=N)N)NC(=O)[C@@H](NC(=O)[C@@H](NC(=O)[C@H](CCCNC(=N)N)NC(=O)[C@H](CCCNC(=N)N)NC(=O)[C@H](Cc1c[nH]c2ccccc12)NC(=O)[C@@H](NC(=O)[C@H](CCCNC(=N)N)NC(=O)[C@H](CCCNC(=N)N)NC(=O)[C@@H](NC(=O)[C@H](CCCNC(=N)N)NC(=O)[C@H](CCCNC(=N)N)NC(=O)[C@@H](NC(=O)[C@H](Cc1c[nH]c2ccccc12)NC(=O)[C@H](CCCNC(=N)N)NC(=O)[C@@H](N)CCCNC(=N)N)C(C)C)C(C)C)C(C)C)C(C)C)C(C)C)C(C)C)C(C)C)C(=O)N[C@@H](CCCNC(=N)N)C(=O)N[C@@H](CCCNC(=N)N)C(N)=O [SEQ ID NO: 1] (H-RRWVRRVRRVWRRVVRVVRRWVRR-NH2)
- Treatment-related TEAE: Blood and Lymphatic System Disorders, participants n (%) [1]: 0
- Treatment-related TEAE: Constipation, participants n (%) [1]: 0
- Treatment-related TEAE: Diarrhea, participants n (%) [1]: 0
- Treatment-related TEAE: Dizziness, occurrences m [1]: 1
- Treatment-related TEAE: Dizziness, participants n (%) [1]: 1 (16.7%)
- Treatment-related TEAE: Feeling hot, participants n (%) [1]: 0
- Treatment-related TEAE: Gastrointestinal Disorders, occurrences m [1]: 1
- Treatment-related TEAE: Gastrointestinal Disorders, participants n (%) [1]: 1 (16.7%)
- Treatment-related TEAE: General Disorders and Administration Site Conditions, occurrences m [1]: 7
- Treatment-related TEAE: General Disorders and Administration Site Conditions, participants n (%) [1]: 6 (100%)
- Treatment-related TEAE: Headache, occurrences m [1]: 1
- Treatment-related TEAE: Headache, participants n (%) [1]: 1 (16.7%)
- Treatment-related TEAE: Infusion related reaction, participants n (%) [1]: 0
- Treatment-related TEAE: Infusion site discomfort, occurrences m [1]: 1
- Treatment-related TEAE: Infusion site discomfort, participants n (%) [1]: 1 (16.7%)
- Treatment-related TEAE: Infusion site pain, occurrences m [1]: 3
- Treatment-related TEAE: Infusion site pain, participants n (%) [1]: 3 (50.0%)
- Treatment-related TEAE: Infusion site reaction, occurrences m [1]: 2
- Treatment-related TEAE: Infusion site reaction, participants n (%) [1]: 2 (33.3%)
- Treatment-related TEAE: Infusion site swelling, occurrences m [1]: 1
- Treatment-related TEAE: Infusion site swelling, participants n (%) [1]: 1 (16.7%)
- Treatment-related TEAE: Injury, Poisoning, and Procedural Complications, participants n (%) [1]: 0
- Treatment-related TEAE: Macule, occurrences m [1]: 1
- Treatment-related TEAE: Macule, participants n (%) [1]: 1 (16.7%)
- Treatment-related TEAE: Musculoskeletal and Connective Tissue Disorders, participants n (%) [1]: 0
- Treatment-related TEAE: Myalgia, participants n (%) [1]: 0
- Treatment-related TEAE: Nervous system disorders, occurrences m [1]: 2
- Treatment-related TEAE: Nervous system disorders, participants n (%) [1]: 2 (33.3%)
- Treatment-related TEAE: Oropharyngeal pain, participants n (%) [1]: 0
- Treatment-related TEAE: Orthostatic hypotension, participants n (%) [1]: 0
- Treatment-related TEAE: Phlebitis, participants n (%) [1]: 0
- Treatment-related TEAE: Respiratory, Thoracic, and Mediastinal disorders, participants n (%) [1]: 0
- Treatment-related TEAE: Skin and Subcutaneous Tissue Disorders, occurrences m [1]: 1
- Treatment-related TEAE: Skin and Subcutaneous Tissue Disorders, participants n (%) [1]: 1 (16.7%)
- Treatment-related TEAE: Thrombocytopenia, participants n (%) [1]: 0
- Treatment-related TEAE: Vascular Disorders, participants n (%) [1]: 0
- Treatment-related TEAE: Vessel puncture site erythema, participants n (%) [1]: 0
- Treatment-related TEAE: Vessel puncture site pain, participants n (%) [1]: 0
- Treatment-related TEAE: Vomiting, occurrences m [1]: 1
- Treatment-related TEAE: Vomiting, participants n (%) [1]: 1 (16.7%)
- adverse events judged Grade 3 or higher (Cohorts 1-4): none
- changes in laboratory parameters (Cohorts 1-4): No clinically significant changes
- related IRRs, events (Cohorts 1-4): 13
- serious adverse events (SAEs) or deaths (Cohorts 1-4): no reports
- subjects with related IRRs (Cohorts 1-4): 7
- subjects with study drug infusion interrupted (Cohorts 1-4): 3
- subjects with at least one TEAE (Cohorts 1-4 (0.05-0.5 mg/kg IV), 29 subjects in the SEQ ID NO: 1 arm): 25 (86.2%) subjects (%)
- TEAEs in SOC General disorders and administration site conditions (Cohorts 1-4, 29 subjects): 24.1%
- TEAEs in SOC Injury, poisoning, and procedural complication (Cohorts 1-4, 29 subjects): 48.3%
- Vascular access site pain (Cohorts 1-4, 29 subjects): 34.5%
- subjects reporting Grade 2 TEAEs (Cohorts 1-4, 29 subjects): 13.8%
- subjects with treatment related-TEAEs (Cohorts 1-4, 29 subjects): 24.1%
- total TEAEs reported (Cohorts 1-4, 29 subjects in the SEQ ID NO: 1 arm): 52
- AEs judged Grade 3 or higher (Cohorts 1-5): none
- serious TEAEs (Cohorts 1-5): no reports
- treatment-emergent DLTs (Cohorts 1-5): no reports
- TEAEs in SOC General disorders and administration site conditions (Cohorts 1-5, 35 participants): 37.1%
- TEAEs in SOC Injury, Poisoning, and Procedural Complications (Cohorts 1-5, 35 participants): 51.4%
- participants with at least 1 TEAE deemed related to treatment (Cohorts 1-5, 35 participants): 37.1%
- participants with at least 1 TEAE leading to study drug discontinuation (Cohorts 1-5, 35 participants): 5.7%
- total TEAE events (Cohorts 1-5, 35 participants): 72
- Vascular access site pain (Cohorts 1-5, 35 participants (n=10)): 28.6%
- Holter monitoring and electrocardiograms (Cohorts 1-5, by treatment assignment or dose level): no trends of concern
- hematology and coagulation [2]: no clinically significant patterns of change
- serum chemistry [2]: no clinically significant patterns of change
- participants with study drug infusion interrupted (Cohorts 1-5, of 47 participants, all in active treatment group): 8 (17.0%) participants (%)
- Participants Reporting at least One Related TEAE, % (Pooled SEQ ID NO: 1 (N = 29)): 24.1%
- Related TEAE Blood and lymphatic system disorders, n participants (Pooled SEQ ID NO: 1 (N = 29)): 0
